These results are taken from PMC5785997, “2-Phenylquinazolinones as dual-activity tankyrase-kinase inhibitors” (Scientific Reports, 2018).

The structures appear in SMILES notation.

For one assay, the target named is CDK9 (Homo sapiens, UniProt P50750). The experiment in a line: Kinase functional assay (mobility shift), CDK9. The following applies: read-out: CDK9 (% Inhib.); for inhibition at 1 µM: 1 µM compound, Table S3; for inhibition at 10 µM: 10 µM compound, Table S4. Type of assay: biochemical.
Chain of CDK9 (P50750 whole entry, species assumed): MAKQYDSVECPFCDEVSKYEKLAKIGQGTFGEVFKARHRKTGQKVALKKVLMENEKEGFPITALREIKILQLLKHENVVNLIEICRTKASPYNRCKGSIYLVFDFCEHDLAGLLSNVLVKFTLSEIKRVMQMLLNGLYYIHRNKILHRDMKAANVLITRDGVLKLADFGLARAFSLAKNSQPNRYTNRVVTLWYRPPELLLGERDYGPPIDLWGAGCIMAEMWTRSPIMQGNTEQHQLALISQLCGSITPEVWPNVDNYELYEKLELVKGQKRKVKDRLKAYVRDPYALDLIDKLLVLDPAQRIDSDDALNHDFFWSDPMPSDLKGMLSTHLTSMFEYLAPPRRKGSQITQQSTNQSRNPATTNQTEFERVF
Chain of CDK9 (O60563 whole entry partner, species assumed): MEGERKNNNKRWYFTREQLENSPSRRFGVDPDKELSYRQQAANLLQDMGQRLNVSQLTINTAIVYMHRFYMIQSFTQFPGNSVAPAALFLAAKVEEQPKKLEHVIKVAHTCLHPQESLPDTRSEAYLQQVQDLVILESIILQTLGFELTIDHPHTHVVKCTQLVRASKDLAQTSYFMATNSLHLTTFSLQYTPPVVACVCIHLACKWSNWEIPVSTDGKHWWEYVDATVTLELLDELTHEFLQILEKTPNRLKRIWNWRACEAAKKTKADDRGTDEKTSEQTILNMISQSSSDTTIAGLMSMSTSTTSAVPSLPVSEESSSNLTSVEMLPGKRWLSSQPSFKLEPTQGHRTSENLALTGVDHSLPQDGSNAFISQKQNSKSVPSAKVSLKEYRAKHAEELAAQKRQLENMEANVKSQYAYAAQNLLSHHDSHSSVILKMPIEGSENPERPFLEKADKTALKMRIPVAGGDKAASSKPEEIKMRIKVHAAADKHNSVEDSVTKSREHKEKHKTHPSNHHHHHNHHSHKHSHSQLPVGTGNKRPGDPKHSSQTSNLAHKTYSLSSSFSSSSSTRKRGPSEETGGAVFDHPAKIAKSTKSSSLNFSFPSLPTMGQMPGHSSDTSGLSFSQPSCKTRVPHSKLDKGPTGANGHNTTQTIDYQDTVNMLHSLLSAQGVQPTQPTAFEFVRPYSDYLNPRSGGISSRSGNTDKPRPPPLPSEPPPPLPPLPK
Assay [1] relates to Wnt/β-catenin signaling (TCF/LEF Reporter HEK293 Cell Line). The experiment in a line: Wnt signaling TCF/LEF reporter assay in HEK293 cells. Type of assay: cell-based, human. Particulars: for Wnt (HEK293) inhibition at 1 µM: 1 µM compound; for inhibition at 1 µM: HEK293, 1 µM compound. As to the method: The Wnt assay was performed using a procedure modified from the BPS Bioscience protocol. Details are given in the Supplementary Methods. […]
The Wnt Signaling Pathway TCF/LEF Reporter HEK293 Cell Line (BPS Bioscience, catalog […]
Reporter HEK293 cells were grown at 37 °C with 5% CO2 using Dulbecco's Modified Eagle's Medium (DMEM, Sigma), supplemented with 10% of fetal bovine serum (Lonza), 1% non-essential amino acid (Sigma), 1X of penicillin and streptomycin (Sigma), and 400 µg/ml of Geneticin (Roche). Wnt-3a and L cells (ATCC) were cultured in Dulbecco’s modified Eagle’s medium supplemented with 10% fetal bovine serum, penicillin and streptomycin at 37 °C in a 5%
CO2. Wnt3a and control conditioned medium preparation has been described previously1. The Wnt assay was performed using a procedure modified from the BPS Bioscience protocol. 30,000 HEK293 cells/well in 40 µl of serum-free DMEM were plated on 96-well plate (white wells, clear […]
bottom, PerkinElmer). 10 µl of 50 mM LiCl in serum-free DMEM with 5x concentration of DMSO or tankyrase inhibitors was added. After 16 hours of incubation, 25 µl of Wnt3a or control conditioned medium supplemented with DMSO or tankyrase inhibitors was added on cells and cells were incubated for additional 24 hours. After the second incubation, the 96-well plates were balanced in room temperature for 30 minutes. Wnt3a induced luciferase activity was determined using ONE-Glo Luciferase Assay System (Promega) according to manufacturer’s protocol. […]
Difference Fourier method deriving the starting phases from 3U9H. The refinement of the structures was done with REFMAC5.5,6 Final manual building, analysis and visualization of the structures were made with Coot7 and PyMOL (www.pymol.org). All chemical structures were drawn with Marvin (Marvin 5.7.0 2011, ChemAxon, http://www.chemaxon.com). The docking studies were performed using GOLD software.8
On the technique in general: Reporter assays use an easily measured gene product as a stand-in for the process of interest.

A further assay addresses ARTD8/PARP14 (Homo sapiens, UniProt Q460N5). As to the kind of experiment: ARTD profiling, ARTD8.
The target of a further assay is T1, ARTD12/PARP12 (Homo sapiens, UniProt Q9H0J9).
T1 sequence (Q9H0J9 484-698 limits assumed): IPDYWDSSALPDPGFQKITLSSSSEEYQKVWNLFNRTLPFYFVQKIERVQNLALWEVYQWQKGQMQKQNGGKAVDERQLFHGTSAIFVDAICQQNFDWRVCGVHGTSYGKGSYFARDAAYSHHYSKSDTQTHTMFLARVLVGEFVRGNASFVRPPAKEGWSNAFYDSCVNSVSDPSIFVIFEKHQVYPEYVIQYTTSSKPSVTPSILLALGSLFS
As to the kind of experiment: ARTD profiling, ARTD12.

In another assay the target is ERK2 (Homo sapiens, UniProt P28482). As to the kind of experiment: Kinase functional assay (mobility shift), ERK2 (p42). The following applies: read-out: ERK2 (% Inhib.); for inhibition at 1 µM: 1 µM compound, Table S3; for inhibition at 10 µM: 10 µM compound, Table S4. Type of assay: biochemical.
Chain of ERK2 (P28482 whole entry, species assumed): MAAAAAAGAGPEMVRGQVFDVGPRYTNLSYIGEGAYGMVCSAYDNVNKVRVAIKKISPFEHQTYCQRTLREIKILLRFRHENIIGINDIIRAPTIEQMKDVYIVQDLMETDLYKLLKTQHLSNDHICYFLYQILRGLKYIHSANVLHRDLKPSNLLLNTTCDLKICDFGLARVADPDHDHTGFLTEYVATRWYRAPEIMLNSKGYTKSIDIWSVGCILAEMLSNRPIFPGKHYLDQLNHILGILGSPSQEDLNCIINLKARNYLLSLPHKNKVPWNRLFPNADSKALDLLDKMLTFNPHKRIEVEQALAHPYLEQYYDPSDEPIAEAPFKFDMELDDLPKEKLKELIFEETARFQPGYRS
The next assay has as its target ARTD1/PARP1 (Homo sapiens, UniProt P09874). As to the kind of experiment: ARTD profiling, ARTD1.
The next assay has as its target ARTD5/TNKS1 (Homo sapiens, UniProt O95271). The experiment in a line: NAD+ quantification activity assay, TNKS1. Type of assay: biochemical. The following applies: NAD+ 500 nM. Here is the method: Protein (nM) NAD+ (nM) Incubation Buffer
Kinase [ATP] Substrate Incubation Reaction buffer

The next assay addresses T2, ARTD10/PARP10 (Homo sapiens, UniProt Q53GL7).
T2 sequence (Q53GL7 806-1025 limits assumed): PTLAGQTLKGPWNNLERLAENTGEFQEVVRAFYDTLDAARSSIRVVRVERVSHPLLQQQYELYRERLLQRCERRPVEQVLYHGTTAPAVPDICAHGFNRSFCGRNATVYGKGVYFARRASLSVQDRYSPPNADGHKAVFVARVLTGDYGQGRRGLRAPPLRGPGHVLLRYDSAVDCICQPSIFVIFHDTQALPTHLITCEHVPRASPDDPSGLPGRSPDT
As to the kind of experiment: ARTD profiling, ARTD10.

Another assay has as its target ARTD2/PARP2 (Homo sapiens, UniProt Q9UGN5). As to the kind of experiment: ARTD profiling, ARTD2.
Setting [2] is: Homo sapiens, TCF/LEF reporter HEK293.

A word on the IC50: it is the concentration at which inhibition is half-maximal. A high value points to weaker potency.

Chain of ARTD1/PARP1 (P09874 whole entry): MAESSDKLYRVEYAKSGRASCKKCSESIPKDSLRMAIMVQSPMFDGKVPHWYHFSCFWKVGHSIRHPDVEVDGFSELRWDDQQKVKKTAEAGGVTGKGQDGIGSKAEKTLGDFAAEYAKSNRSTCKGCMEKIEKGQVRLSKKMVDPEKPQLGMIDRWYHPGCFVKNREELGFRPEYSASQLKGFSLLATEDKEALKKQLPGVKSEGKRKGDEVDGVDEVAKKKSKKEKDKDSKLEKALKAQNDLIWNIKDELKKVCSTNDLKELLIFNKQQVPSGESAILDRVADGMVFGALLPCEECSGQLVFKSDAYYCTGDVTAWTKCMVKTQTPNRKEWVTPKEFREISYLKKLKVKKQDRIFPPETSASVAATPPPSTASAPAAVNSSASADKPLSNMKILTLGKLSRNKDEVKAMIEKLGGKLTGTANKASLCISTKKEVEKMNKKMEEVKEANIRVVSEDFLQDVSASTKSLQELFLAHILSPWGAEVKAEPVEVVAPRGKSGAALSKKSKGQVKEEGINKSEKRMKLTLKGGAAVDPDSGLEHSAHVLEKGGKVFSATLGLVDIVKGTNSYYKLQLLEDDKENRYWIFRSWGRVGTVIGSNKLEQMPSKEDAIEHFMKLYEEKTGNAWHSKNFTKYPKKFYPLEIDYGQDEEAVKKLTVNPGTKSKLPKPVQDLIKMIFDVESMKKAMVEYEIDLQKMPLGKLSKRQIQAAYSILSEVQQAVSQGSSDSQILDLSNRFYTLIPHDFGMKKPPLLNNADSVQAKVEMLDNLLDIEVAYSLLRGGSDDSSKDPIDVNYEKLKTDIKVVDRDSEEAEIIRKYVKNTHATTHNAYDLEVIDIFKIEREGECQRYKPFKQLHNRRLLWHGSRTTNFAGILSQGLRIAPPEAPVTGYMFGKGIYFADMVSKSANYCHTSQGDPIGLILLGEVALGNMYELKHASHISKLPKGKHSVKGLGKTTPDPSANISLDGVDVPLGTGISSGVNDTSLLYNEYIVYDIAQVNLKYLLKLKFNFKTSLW
Chain of ARTD2/PARP2 (Q9UGN5 whole entry): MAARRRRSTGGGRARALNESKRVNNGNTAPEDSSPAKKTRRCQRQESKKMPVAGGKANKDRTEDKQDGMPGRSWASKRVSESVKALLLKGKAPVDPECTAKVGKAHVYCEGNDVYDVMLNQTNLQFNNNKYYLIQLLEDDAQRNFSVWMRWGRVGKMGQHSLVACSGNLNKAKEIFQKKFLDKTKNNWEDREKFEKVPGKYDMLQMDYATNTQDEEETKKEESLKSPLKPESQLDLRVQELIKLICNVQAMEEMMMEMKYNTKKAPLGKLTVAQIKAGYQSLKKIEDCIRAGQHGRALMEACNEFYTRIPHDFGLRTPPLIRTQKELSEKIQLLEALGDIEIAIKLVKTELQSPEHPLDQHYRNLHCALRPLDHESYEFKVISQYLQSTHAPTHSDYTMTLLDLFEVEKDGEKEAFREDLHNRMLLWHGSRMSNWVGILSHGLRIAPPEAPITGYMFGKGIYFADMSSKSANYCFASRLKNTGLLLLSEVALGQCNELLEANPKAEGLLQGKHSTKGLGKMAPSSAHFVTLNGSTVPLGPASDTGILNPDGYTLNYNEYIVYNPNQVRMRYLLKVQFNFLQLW
Chain of ARTD5/TNKS1 (O95271 1112-1317): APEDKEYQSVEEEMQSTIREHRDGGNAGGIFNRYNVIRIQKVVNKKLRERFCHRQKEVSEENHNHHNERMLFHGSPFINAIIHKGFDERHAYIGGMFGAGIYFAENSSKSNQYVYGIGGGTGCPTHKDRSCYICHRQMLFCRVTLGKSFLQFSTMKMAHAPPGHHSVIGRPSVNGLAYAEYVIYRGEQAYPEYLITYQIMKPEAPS
Chain of ARTD8/PARP14 (Q460N5 whole entry): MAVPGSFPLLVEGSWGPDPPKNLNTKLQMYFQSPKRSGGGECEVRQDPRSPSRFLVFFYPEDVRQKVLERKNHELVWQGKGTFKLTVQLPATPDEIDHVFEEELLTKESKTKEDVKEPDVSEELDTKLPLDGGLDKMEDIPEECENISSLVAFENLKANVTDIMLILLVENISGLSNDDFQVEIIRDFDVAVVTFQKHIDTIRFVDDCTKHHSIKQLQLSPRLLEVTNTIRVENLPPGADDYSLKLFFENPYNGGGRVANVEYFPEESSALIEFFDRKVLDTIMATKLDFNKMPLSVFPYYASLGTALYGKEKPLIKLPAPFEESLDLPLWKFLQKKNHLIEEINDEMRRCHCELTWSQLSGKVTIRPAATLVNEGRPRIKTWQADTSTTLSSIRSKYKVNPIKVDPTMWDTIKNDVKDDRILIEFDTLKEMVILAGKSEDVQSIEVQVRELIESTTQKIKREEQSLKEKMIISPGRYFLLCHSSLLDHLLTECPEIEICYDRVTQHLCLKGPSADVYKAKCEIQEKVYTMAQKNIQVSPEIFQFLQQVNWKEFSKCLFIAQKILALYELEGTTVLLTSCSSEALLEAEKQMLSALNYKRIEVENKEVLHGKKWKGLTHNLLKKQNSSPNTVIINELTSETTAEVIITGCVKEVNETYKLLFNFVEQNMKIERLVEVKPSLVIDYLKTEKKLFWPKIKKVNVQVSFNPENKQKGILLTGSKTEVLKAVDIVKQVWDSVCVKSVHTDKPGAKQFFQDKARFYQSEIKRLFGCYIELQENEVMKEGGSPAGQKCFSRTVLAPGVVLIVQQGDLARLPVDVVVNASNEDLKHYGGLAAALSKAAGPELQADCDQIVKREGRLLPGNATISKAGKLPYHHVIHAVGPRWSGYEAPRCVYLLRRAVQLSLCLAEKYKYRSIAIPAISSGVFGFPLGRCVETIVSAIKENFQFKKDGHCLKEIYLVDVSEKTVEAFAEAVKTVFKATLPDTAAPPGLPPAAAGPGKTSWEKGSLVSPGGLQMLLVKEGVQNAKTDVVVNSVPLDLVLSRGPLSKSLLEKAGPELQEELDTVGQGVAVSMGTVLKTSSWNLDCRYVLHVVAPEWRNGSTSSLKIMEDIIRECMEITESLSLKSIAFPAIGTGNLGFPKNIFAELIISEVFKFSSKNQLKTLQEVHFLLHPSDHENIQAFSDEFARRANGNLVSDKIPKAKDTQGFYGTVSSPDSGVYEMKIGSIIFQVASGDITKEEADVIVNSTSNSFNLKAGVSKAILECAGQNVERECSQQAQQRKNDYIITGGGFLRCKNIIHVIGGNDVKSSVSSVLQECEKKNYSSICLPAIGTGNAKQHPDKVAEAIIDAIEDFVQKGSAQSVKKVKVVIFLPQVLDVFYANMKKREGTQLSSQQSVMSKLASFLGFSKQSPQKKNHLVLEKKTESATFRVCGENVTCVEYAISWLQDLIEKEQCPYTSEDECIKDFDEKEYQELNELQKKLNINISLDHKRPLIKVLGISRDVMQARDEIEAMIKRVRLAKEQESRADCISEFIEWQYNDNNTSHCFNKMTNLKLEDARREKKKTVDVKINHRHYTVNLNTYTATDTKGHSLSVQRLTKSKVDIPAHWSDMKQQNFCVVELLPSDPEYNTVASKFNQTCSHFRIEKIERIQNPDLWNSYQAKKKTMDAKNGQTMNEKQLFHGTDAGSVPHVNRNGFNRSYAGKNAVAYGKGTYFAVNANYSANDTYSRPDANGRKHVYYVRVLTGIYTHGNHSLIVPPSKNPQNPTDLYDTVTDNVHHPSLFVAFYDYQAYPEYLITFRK

Regarding `O=c1[nH]c(-c2ccc(N3CCCCC3)cc2)nc2ccccc12` [Compound 30], the inhibition at 1 µM on CDK9 came to 12 ± 4%; in [1] (setting [2]), 61%; on ERK2, 2 ± 1%. Also, the inhibition at 10 µM on CDK9 is 31 ± 4%; at ERK2 it was 3 ± 1%. In addition, the “Wnt (HEK293) inhibition at 1 µM” value in assay [1] (TCF/LEF reporter HEK293) is recorded as over 50%. For the same molecule, the IC50 in [1] (setting [2]) was 0.57 µM; against ARTD8/PARP14 it was over 10 µM; against ARTD12/PARP12 it was over 10 µM; at ARTD1/PARP1, 18 µM; against ARTD5/TNKS1 it was 0.03 µM; at ARTD10/PARP10, over 10 µM. Further, the IC50 against ARTD2/PARP2 came to 8.6 µM.
Regarding `CCN(CC)c1ccc(-c2nc3ccccc3c(=O)[nH]2)cc1` [Compound 32], the inhibition at 1 µM on CDK9 is 13 ± 4%; in assay [1] (setting [2]) it was over 50%; at ERK2, 2 ± 1%. Moreover, the inhibition at 10 µM on CDK9 came out at 16 ± 3%; on ERK2, 18 ± 3%. The “Wnt (HEK293) inhibition at 1 µM” value in assay [1] (TCF/LEF reporter HEK293) came out at 63%. Further, in [1] (concentrations below 1 µM), the “Effect on Wnt/β-catenin signaling at lower concentrations” value was “activated Wnt/β-catening signaling”. Besides, the half-maximal inhibitory concentration (IC50) at ARTD8/PARP14 was over 10 µM; at ARTD12/PARP12, over 10 µM; on ARTD1/PARP1 it was 30 µM; against ARTD5/TNKS1 it was 0.011 µM; against ARTD10/PARP10 it was over 10 µM; at ARTD2/PARP2 it was 24 µM.
